From paper PMC7751408, “Production, purification and biochemical characterisation of a novel lipase from a newly identified lipolytic bacterium Staphylococcus caprae NCU S6” (Journal of Enzyme Inhibition and Medicinal Chemistry, 2020) come the findings set out here.

This assay has as its system T1, SCNL (lipase from Staphylococcus caprae NCU S6).
T1 construct: native extracellular enzyme purified from culture supernatant of the source strain (ammonium sulphate, ultrafiltration, Sephadex G-50, DEAE-Sepharose); ~87 kDa by SDS-PAGE
Kind of assay: colorimetric p-nitrophenol release at […] nm, Lineweaver-Burk. It is filed as biochemical. The settings on record: 0.1-5.0 mM p-NPP, optimum conditions (optimal pH 9.0 and 40 °C); free enzyme.

The Km is the concentration of substrate that gives half-maximal velocity. Consider `CCCCCCCCCCCCCCCC(=O)Oc1ccc([N+](=O)[O-])cc1` [p-nitrophenyl palmitate], for which the Km is 695 µM.
